One experiment concerns mTOR and RagA. The experiment in a line: Co-IP of FLAG-tagged galectins with endogenous mTOR or RagA in HEK293T cells. Type of experiment: binding. To be noted: HEK293T overexpressing FLAG-tagged galectins. How it is done:
(A) Analysis of the puncta formation of galectins in response to GPN. HeLa cells overexpressing YFP-fused with the indicated galectins were treated with 100 μM GPN or without (Ctrl) in full medium for 1 h and galectin puncta were quantified by HC. […] White masks, algorithm defined cell boundaries (primary objects); green masks, computer-identified galectins puncta (target objects). Data, means±SEM, n≥3 independent experiments (500 primary objects counted per well; ≥5 wells/sample per each experiment); *p<0.05, **p<0.01, † p≥0.05, ANOVA. (B) Immunoprecipitation analysis of the interactions between galectins and mTOR or RagA GTPase. HEK293T cells overexpressing FLAG-tagged galectins were subjected to anti-FLAG immunoprecipitation followed by immunoblotting for endogenous mTOR or RagA. (C) Immunoprecipitation analysis of interactions between Gal8 and mTOR protein complexes in response to GPN treatment. THP-1 cells not treated or treated with 100 μM GPN in full medium for 1 h were subjected to immunoprecipitation with anti-Gal8 antibody, followed by immunoblotting for endogenous RagA, p14, mTOR or Raptor. […] Biotinylated proteins from HEK293T cell expressing APEX2-vector or APEX2-Gal8, after GPN and biotin phenol (BP) treatment were affinity-enriched by binding to streptavidin-beads, and samples were analyzed by immunoblotting analysis for endogenous RagA, p14, mTOR or Raptor. […]

The test system of a further experiment is LC3. As to the kind of experiment: Autophagy induction (LC3-II levels and LC3 puncta) in HEK293T cells. To be noted: SLC38A9 knockout and wild type HEK293T, 100 μM GPN. The format is cell-based. The protocol: (A) Analysis of mTOR activity and autophagy induction in HEK293T cells (WT, wild type) and SLC38A9 knockout (SLC38A9 KO) HEK293T derivatives treated with 100 μM GPN in full medium for the indicated time points. mTOR activity was monitored by immunoblotting analysis of S6K1 phosphorylation at T389 (p-T389). Autophagy induction was monitored by immunoblotting analysis of LC3-II. (B) Analysis of autophagy induction in SLC38A9 KO cells treated with GPN. WT and SLC38A9-KO (SLCKO) HEK293T cells were treated with 100 μM GPN in full medium for 30 min, and LC3 puncta were quantified by HC. […] Data, means±SEM, n≥3 independent experiments (500 primary objects counted per well; ≥ 5 wells/sample per each experiment), **p<0.01, ANOVA. […] WT and SLC38A9 KO HEK293T cells were treated with 100 μM GPN for 1 h followed by 1 h washout in full medium. mTOR activity was monitored by immunoblotting analysis of S6K1 p-T389 and ULK1 p-S757 phosphorylation. Autophagy induction was monitored by immunoblotting analysis of LC3-II. […] Control and FLAG-SLC38A9 overexpressing HEK293T cells were treated with 100 μM GPN in full medium for 30 min, and LC3 puncta were quantified by HC. […] Data, means±SEM, n≥3 independent experiments (500 primary objects counted per well; ≥5 wells/sample per each experiment), **p<0.01, ANOVA. […]

The subject of another experiment is Gal8. As to the kind of experiment: Immunoprecipitation of endogenous Gal8 complexes in THP-1 cells. Type of experiment: cell-based. The settings on record: 100 μM GPN 1 h. The protocol: (A) Analysis of the puncta formation of galectins in response to GPN. HeLa cells overexpressing YFP-fused with the indicated galectins were treated with 100 μM GPN or without (Ctrl) in full medium for 1 h and galectin puncta were quantified by HC. […] White masks, algorithm defined cell boundaries (primary objects); green masks, computer-identified galectins puncta (target objects). Data, means±SEM, n≥3 independent experiments (500 primary objects counted per well; ≥5 wells/sample per each experiment); *p<0.05, **p<0.01, † p≥0.05, ANOVA. (B) Immunoprecipitation analysis of the interactions between galectins and mTOR or RagA GTPase. HEK293T cells overexpressing FLAG-tagged galectins were subjected to anti-FLAG immunoprecipitation followed by immunoblotting for endogenous mTOR or RagA. (C) Immunoprecipitation analysis of interactions between Gal8 and mTOR protein complexes in response to GPN treatment. THP-1 cells not treated or treated with 100 μM GPN in full medium for 1 h were subjected to immunoprecipitation with anti-Gal8 antibody, followed by immunoblotting for endogenous RagA, p14, mTOR or Raptor. (D) Analysis of the proximity of Gal8 to mTOR and other proteins in mTOR complexes in response to GPN. Biotinylated proteins from HEK293T cell expressing APEX2-vector or APEX2-Gal8, after GPN and biotin phenol (BP) treatment were affinity-enriched by binding to streptavidin-beads, and samples were analyzed by immunoblotting analysis for endogenous RagA, p14, mTOR or Raptor. Data, means±SEM, (n=3), **p<0.01, ANOVA. (E) Immunoprecipitation analysis of the interactions between Gal8 and RagA GTPase and its mutants. Lysates of HEK293T cells overexpressing FLAG-Gal8 and HA-tagged RagA proteins (RagAWT, RagAT21L or RagAQ66L) were subjected to anti-FLAG immunoprecipitation, followed by immunoblotting for HA-tagged RagA proteins. (F) Immunoprecipitation analysis of the interactions between Gal8 and RagC GTPase and its mutants. […]

Peptide text beside a SMILES is read from it.

In the case of “Gal8: protein of the galectin family encoded by the gene LGALS8; beta-galactoside-binding lectin”, the “co-IP with mTOR and RagA” value in the experiment on mTOR and RagA is “found in co-IPs”.
In the case of `NCC(=O)N[C@@H](Cc1ccccc1)C(=O)Nc1ccc2ccccc2c1` [GPN, glycyl-L-phenylalanine 2-naphththylamide] (HELM PEPTIDE1{G.F.[c1ccc2cc(N[*:1])ccc2c1]}$$$$V2.0), the “LC3-II levels and LC3 puncta” value in the experiment on LC3 was “increased robustly”. Also, in the experiment with Gal8, the “association between Gal8 and LAMTOR2/p14” value is “increased association”; the “association between Gal8 and RagA” value was “increased”; the “levels of Raptor and mTOR in complexes with Gal8” value is recorded as “reduced levels”.

The record behind these values is patent US20210069295A1, “GALECTINS CONTROL MTOR IN RESPONSE TO ENDOMEMBRANE DAMAGE AND PROVIDE A MECHANISM AND TARGET FOR THE TREATMENT OF AUTOPHAGY-RELATED DISEASES” (STC. UNM, priority 2017, published 2021).
